Values after ≈ are worked out from the molar mass of the structure shown. Like-named read-outs stand apart in the source and are kept apart here. Residues, ends and D or L forms follow the SMILES beside them.
Experiments:
E. coli [1] = tested on: E. coli; parameters: method as in Hasman H, et al. Euro. Surveill. (2015) 20:49; settings: E. coli ESBL20150072, mcr-1 pos; ESBL; CAMHB; comparator antibiotics; ref Hasman H, et al. Euro. Surveill. (2015) 20:49; cited from earlier work
E. coli [2] = assay: microbe, parasite or virus in culture; settings: for MIC: Escherichia coli
Outline: (§1)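 MICs were scored by eye after 18-20 h static incubation at 37 °C, with bacteria at 5 × 10^5 CFU mL^−1 in MHB. Peptides were serially diluted 2-fold over 12 points, top 128 or 64 μg mL^−1. CAMHB (CLSI) and 1% agarose-MHB variants were also run, at least six replicates.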

S. enterica Typhi = assay: microbe, parasite or virus in culture; settings: for BMD MIC: Typhi
Outline: as §1

A. baumannii = assay: microbe, parasite or virus in culture; settings: for MIC: Acinetobacter baumannii, mode of 6 replicates
Outline: as §1

K. pneumoniae = assay: microbe, parasite or virus in culture; settings: for MIC: Klebsiella pneumoniae, mode of 6 replicates
Outline: as §1

P. aeruginosa = assay: microbe, parasite or virus in culture; settings: for MIC: Pseudomonas aeruginosa, mode of 6 replicates
Outline: as §1

C. albicans = assay: microbe, parasite or virus in culture; settings: for MIC: Candida albicans
C. neoformans = assay: microbe, parasite or virus in culture; settings: for MIC: Cryptococcus neoformans, ATCC208821, read-out: BMD MIC, C. neoformans ATCC 208821 H99, mode of 6 replicates
[3] = tested on: human erythrocytes (HRBC); type: cell-based; settings: for Heamolysis HC10: red cells of human, 3 h
in vitro = settings: human
Description: (§2) HEK-293 human embryonic kidney cells (ATCC CRL-1573), HepG2 liver hepatocellular carcinoma cells (ATCC HB-8065), and HK-2 human kidney proximal tubule cells (ATCC CRL-2190) cell lines were purchased from ATCC. Cytotoxicity of arenicin-3 variants was determined using the Alamar Blue (resazurin; Sigma-Aldrich, Cat # R7017), with 1% FBS for HK-2 and 10% FBS for HEK-293, and HepG2[40]. Cells were seeded as 2000 cells per well in black wall clear bottom 384-well plates (Corning®, Costar®, Cat # 3712). The cells were incubated for 24 h at 37 °C, 5% CO2. Then peptides were added into each cell containing well. After 24 h incubation, 5 μM resazurin were added per well and incubated at 37 °C for 2 h. Then the fluorescence intensity (FI) was read using a Polarstar® Omega plate reader with excitation/emission 560/590 and CC50 values were determined using Prism 8 following curve fitting and applying the following equation: Percentageviability = (FITEST-FINegative/FIUNTREATED-FINegative)×100.
(§3) Hemolytic activity was measured against isolated human erythrocytes from anonymously donated fresh human blood. Isolated erythrocytes were adjusted to 1 × 10^9 blood cells mL^−1 in phosphate-buffered saline (PBS, pH 7.4), added to the wells of NUNC polypropylene round-bottom 96-well plates (Sigma-Aldrich, Cat # P6866) then up to 300 μg mL^−1 of compound was added per well and incubated for 3 h at 37 °C. Following incubation, samples were centrifuged at 3000 rpm for 20 min, and the supernatants, 100 μL, were carefully collected for measurement. The degree of hemolysis in the samples was determined by measurement of the absorption of the supernatants at 540 nm using the Polarstar-Omega plate reader. 1% Triton-X100 was used as positive control for inducing 100% hemolysis. HC10 and HC50 values were determined using Prism 8 following curve fitting. The use of human blood (sourced from the Australian Red Cross Blood Service) for hemolysis assays was approved by the University of Queensland Institutional Human Research Ethics Committee, Approval Number 2014000031. All in vitro toxicity assays were performed for two independent biological replicates as an 8-point dose response of 3-fold dilution series in triplicate with the highest test concentration of 300 μg mL^−1.

[4] = tested on: HEK-293 human embryonic kidney cells; assay: in vitro
Description: as §2, §3

[5] = tested on: HK-2 human kidney proximal tubule cells; assay: in vitro
Description: as §2, §3

[6] = tested on: HepG2 liver hepatocellular carcinoma cells; assay: in vitro
Description: as §2, §3

L. monocytogenes = assay: microbe, parasite or virus in culture
Outline: as §1

E. coli ATCC 25922 = assay: microbe, parasite or virus in culture; type: cell-based, Escherichia coli; settings: ATCC 25922
Description: Assays were performed in Mueller Hinton broth (MHB; BD, Cat. No. 211443) for bacteria, and yeast extract-peptone dextrose (YPD; Sigma-Aldrich, Y1500) for yeast. The concentrations of the peptides and comparator antibiotics/antifungals in the assay wells ranged from either 128 or 64 μg mL^−1, to 0.06 or 0.03 μg mL^−1 as a 12-point dose response plated as a 2-fold dilution series across the wells of the plate in duplicate for each independent biological replicate, using a final cell density of 5 × 10^5 CFU mL^−1 and 2.5 × 10^3 CFU mL^−1 for bacteria and yeast respectively. Final assay volumes were 100 μL per well with MICs determined visually following 18-20 h incubation at 37 °C for bacteria, 24 h incubation at 35 °C for Candida albicans, and 24 h incubation at 35 °C with resazurin addition (0.006%; Sigma-Aldrich, Cat # R7017) for a further 3 h for Cryptococcus neoformans, without shaking. Additional bacterial and yeast susceptibility assays were performed in Cation-Adjusted Mueller Hinton Broth (CAMHB; BD, Cat No. 212322) and Roswell Park Memorial Institute (RPMI) 1640 culture medium (Life Technologies Australia, Cat No. 21870092), respectively, as recommended by CLSI guidelines (M07 11th ed[36] and M27 4th ed[37]). […] However, for yeast it was determined that the YPD media was more reliable and robust between repeats and therefore MICs in this media are reported. […] Agarose MICs were determined in MHB with 1% agarose (Bioline molecular grade; Cat no: BIO-41025; high purity, high gel strength). All experiments were performed a minimum of six replicates (n ≥ 6).

SMILES	Heamolysis HC10, Mean [3]	Heamolysis HC10 [3]	CC50 at 24 h (in vitro; HEK-293 cells)	CC50 at 24 h (in vitro; HK-2 cells)	CC50 at 24 h (in vitro; HepG2 cells)	CC50 HEK293 [4]	CC50 HEK293, Mean [4]	CC50 HK2 [5]	CC50 HK2, Mean [5]	CC50 HepG2 [6]	CC50 HepG2, Mean [6]	MIC against ESBL producing E. coli DSA 443 (E. coli [2])	BMD MIC (S. enterica Typhi)	BMD MIC (A. baumannii)	BMD MIC (L. monocytogenes)	BMD MIC (K. pneumoniae)	BMD MIC (C. albicans)	BMD MIC (C. albicans; 24 h)	BMD MIC (P. aeruginosa)	BMD MIC (C. neoformans)	other results
CO/N=C(\C(=O)N[C@@H]1C(=O)N2C(C(=O)[O-])=C(C[N+]3(C)CCCC3)CS[C@H]12)c1csc(N)n1 [Cefepime, reference compound]																					BMD MIC (E. coli [1]): >2 µg/mL; MIC (E. coli [2]; ATCC25922, read-out: BMD MIC, E. coli ATCC 25922 FDA control strain, CAMHB, mode of 6 replicates): ≤ 0.5 µg/mL; MIC (E. coli [2]; ATCC700926 / MG1655, read-out: BMD MIC): ≤ 0.5 µg/mL; MIC (E. coli [2]; ATCC700928, read-out: BMD MIC, E. coli ATCC 700928 CFT073 UPEC, CAMHB, mode of 6 replicates): ≤ 0.5 µg/mL; MIC (E. coli [2]; read-out: BMD MIC): 8 µg/mL (≈ 16.6 µM); MIC (S. enterica Typhi; Salmonella enterica, ATCC14028 / TYPHI, read-out: BMD MIC): ≤ 0.5 µg/mL; MIC (A. baumannii; ATCC19636, read-out: BMD MIC, A. baumannii ATCC 19636 type strain, CAMHB): 8 µg/mL (≈ 16.6 µM); MIC (A. baumannii; read-out: BMD MIC, A. baumannii Greece CI, XDR, PmxR, MHB): > 64 µg/mL; MIC (K. pneumoniae; ATCC13883, read-out: BMD MIC, K. pneumoniae ATCC 13883 type strain (polymyxin/colistin heteroresistant), MHB): 1 µg/mL (≈ 2.08 µM); MIC (K. pneumoniae; ATCC700603, read-out: BMD MIC, K. pneumoniae ATCC 700603 (K6), MDR, OXA-2/SHV-18, CAMHB): 0.5 µg/mL (≈ 1.04 µM); MIC (K. pneumoniae; BAA2146, read-out: BMD MIC, K. pneumoniae BAA-2146, MDR, ESBL, NDM-1 pos, MHB): > 64 µg/mL; MIC (K. pneumoniae; read-out: BMD MIC, K. pneumoniae Greece CI 8_GR_13, XDR, KPC-2, PmxR, MHB): > 64 µg/mL; MIC (P. aeruginosa; ATCC27853, read-out: BMD MIC, P. aeruginosa ATCC 27853 control strain, CAMHB): ≤ 0.5 µg/mL; MIC (P. aeruginosa; read-out: BMD MIC, P. aeruginosa FADDI-070, MDR, PmxR, MHB/CAMHB): > 64 µg/mL
OC(Cn1cncn1)(Cn1cncn1)c1ccc(F)cc1F [Fluconazole, reference compound]																					MIC (C. albicans; ATCC90028, 24 h, read-out: BMD MIC): 1 µg/mL (≈ 3.27 µM); MIC (C. albicans; ATCC90028, read-out: BMD MIC): 0.5 µg/mL (≈ 1.63 µM); MIC (C. neoformans; RPMI): 2 µg/mL (≈ 6.53 µM); MIC (C. neoformans; YPD, 24 h 35 °C + resazurin 3 h): 8 µg/mL
CC(C)[C@@H]1NC(=O)CNC(=O)[C@H](CC(N)=O)NC(=O)[C@H](CCCNC(=N)N)NC(=O)[C@H](CCCNC(=N)N)NC(=O)[C@H](C(C)C)NC(=O)[C@@H]2CSSC[C@H](NC(=O)[C@H](C(C)C)NC(=O)[C@H](CCCNC(=N)N)NC1=O)C(=O)N[C@@H](Cc1c[nH]cn1)C(=O)N[C@@H](CCCNC(=N)N)C(=O)N[C@@H](CCCNC(=N)N)C(=O)N[C@H](C(=O)N[C@@H](CC(N)=O)C(=O)O)CSSC[C@H](NC(=O)[C@H](Cc1ccccc1)NC(=O)CN)C(=O)N[C@@H](Cc1c[nH]c3ccccc13)C(=O)N[C@@H](CC(N)=O)C(=O)N[C@@H](C(C)C)C(=O)N2 [NZ17143] (HELM PEPTIDE1{G.F.C.W.N.V.C.V.R.R.N.G.V.R.V.C.H.R.R.C.N}$PEPTIDE1,PEPTIDE1,3:R3-20:R3|PEPTIDE1,PEPTIDE1,7:R3-16:R3$$$V2.0)	>300 µg/mL	>300 µg/mL	> 300 µg/mL	> 250 µg/mL	> 300 µg/mL	>300 µg/mL	>300 µg/mL	>253 µg/mL	>250 µg/mL	>300 µg/mL	>300 µg/mL	0.5 µg/mL (≈ 0.198 µM)	0.5 µg/mL	2 µg/mL	8 µg/mL	1 µg/mL	>32 µg/mL	32 µg/mL	1 µg/mL	4 µg/mL	MIC, MHB (E. coli ATCC 25922): 0.25 µg/mL (≈ 0.0988 µM)
CC[C@H](C)[C@@H]1NC(=O)[C@H](CCCNC(=N)N)NC(=O)[C@H](C(C)C)NC(=O)CNC(=O)[C@H](CC(N)=O)NC(=O)[C@H](CCCNC(=N)N)NC(=O)[C@H](Cc2ccc(O)cc2)NC(=O)[C@H](C(C)C)NC(=O)[C@@H]2CSSC[C@H](NC1=O)C(=O)N[C@@H](Cc1c[nH]cn1)C(=O)N[C@@H](CCCNC(=N)N)C(=O)N[C@@H](CCCNC(=N)N)C(=O)N[C@H](C(=O)N[C@@H](CC(N)=O)C(=O)O)CSSC[C@H](NC(=O)[C@H](Cc1ccccc1)NC(=O)CN)C(=O)N[C@@H](Cc1c[nH]c3ccccc13)C(=O)N[C@@H](CC(N)=O)C(=O)N[C@@H](C(C)C)C(=O)N2 [NZ17211] (HELM PEPTIDE1{G.F.C.W.N.V.C.V.Y.R.N.G.V.R.I.C.H.R.R.C.N}$PEPTIDE1,PEPTIDE1,3:R3-20:R3|PEPTIDE1,PEPTIDE1,7:R3-16:R3$$$V2.0)	>300 µg/mL	>300 µg/mL	> 300 µg/mL	> 250 µg/mL	> 300 µg/mL	>300 µg/mL	>300 µg/mL	>255 µg/mL	>250 µg/mL	>300 µg/mL	>300 µg/mL	2.0 µg/mL (≈ 0.784 µM)	1 µg/mL	4 µg/mL	16 µg/mL	2 µg/mL	>32 µg/mL	64 µg/mL	2 µg/mL	4 µg/mL	MIC, MHB (E. coli ATCC 25922): 0.5 µg/mL (≈ 0.196 µM)

Source: PMC7311426, “An amphipathic peptide with antibiotic activity against multidrug-resistant Gram-negative bacteria” (Nature Communications, 2020)
